Experimental data from US8551976B2, “Prochelators for inhibiting metal-promoted oxidative stress” (Duke University, priority 2011, dated 2013).

Experiment: Hydrogen Peroxide Oxidation (LC-MS analysis of prochelator conversion)
Assay type: physicochemical
Settings: 2 mM B-HAPI in water/DMSO, addition of 50 μl concentrated (30%) H2O2, room temperature, 1 h, data not shown
Protocol: Hydrogen Peroxide Oxidation. A 40 mM stock solution of B-HAPI in DMSO was prepared. The reaction mixture (2 mM B-HAPI) was prepared by mixing […] of the B-HAPI stock solution with 450 μl of water and 450 μl of DMSO. The reaction was initiated by addition of 50 μl of concentrated (30%) H2O2 solution. The reaction mixture was incubated at room temperature for 1 h and analyzed by LC-MS.

SMILES: C/C(=N\NC(=O)c1ccncc1)c1ccccc1OCc1ccc(B2OC(C)(C)C(C)(C)O2)cc1 [B-HAPI, N′-(1-(2-(4-(4,4,5,5-tetramethyl-1,3,2-dioxaborolan-2-yl)benzyloxy)phenyl)ethylidene)isonitotinohdrazide]
- Hydrogen peroxide oxidation: products formed (LC-MS): Formation of the chelator (HAPI) and the intermediate of the self-immolative deprotection reaction was observed
